Read-outs that look alike come from different tables or passages of the source. Non-standard residues stand in square brackets, D forms with d. Residues, ends and D or L forms follow the SMILES beside them. NMeF = CN[C@@H](Cc1ccccc1)C(=O)O; NMeA = CN[C@@H](C)C(=O)O
Experiments:
[1] = MDCK
Method: We also tested the permeabilities of the pure compounds in a cell-based trans-well permeability assay using Mdr1 knockout Madin–Darby canine kidney (MDCK) cells which minimize the endogenous efflux activity of traditional MDCK cells.[54]
The gMDCKI cell line (overexpressed cell line of Madin -Darby Canine Kidney which acquired from the NIH)
maintained in DMEM medium supplemented with 1% pen -strep, 5 µg/mL Plasmocin, and 10% FBS under
standard culture conditions (37 °C, 95% humidity, and 5% CO2), were seeded (0.75 x 10^5 cells) on the HTS
Transwell-96 permeable support (Corning) to form a confluent monolayer for two days.
All experimental steps were fully automated on Hamilton Vantage. Compound stock solution (1 mM in
DMSO) was diluted (10 μM final in HBSS, pH 7.4) with Lucifer Yellow as leakage indicator (20 μM). After
washing with HBSS buffer, the solution of test compounds was added to the apical side of the monolayers.
The plate was incubated for 3 h at 37 °C. T0 samples (10 µL of the 10 µM compounds diluted solution with
LY) were transferred to a 96-well plate, and then 40 µL of HBSS was added. After 3 hours, 50 μL basolateral
samples in the receiving plate were transferred to a fresh 96-well plate and added 100 μL of IS solution
(Propranolol). LY were read by plate reader and the samples were analyzed by LC/MS/MS.
The apparent permeability coefficient (Papp) is calculated from the permeation rate and compound
concentration at t=0h and t=3h. Where:
dQ/dt: amount of product present in the basal (A-B) or apical (B-A) compartment as a function of time
A: area of transwell (cm2).
C0: initial concentration of product applied in the apical (A -B) or basal (B-A) compartment (nmol/ml).

[2] = set-up: method as in Fouché et al.; conditions: rat; ref Fouché et al.; cited from earlier work
[3] = set-up: method as in Fouché et al.; conditions: ref Fouché et al.; cited from earlier work
[4] = PAMPA
Method: assay was carried out with a 96-well donor plate with 0.45 μ hydrophobic Immobilon-P membrane supports
(Millipore MAIPNTR10) and a 96-well Teflon acceptor plate (Millipore MSSACCEPTOR). The PAMPA
protocol then proceeded as follows:
Donor well solutions were prepared to a volume of 1 000 µL with the analytes as a solution in 1X
PBS pH 7.4 and 5% DMSO. To a 3 mL Eppendorf tube was added 950 µL of 1X PBS pH 7.4, 40
Analyte – 10 µM per compound
sonicated (5 min) to ensure full dissolution of the lecithin. The donor membrane plate was turned
upside down and bottom of the membranes exposed. 5 µL of the 1% soy lecithin solution in
dodecane was then placed on the bottom of the membrane, allowing the drop to spread across the
full area of the membrane. Any membranes with visible damage were not used in the assay. The
membranes were allowed to equilibrate for 5 min before loading.
3. Each well within the Teflon block acceptor plate that was to be used in the assay was then loaded
with 300 µL of 1X PBS pH 7.4 and 5% DMSO.
Working without break, 150 µL of each donor well solution was transferred from the to the 96-well
donor plate. Each mixture of interest was r un in quadruplicate, using a new well for each replicate.
As soon as the 96-well donor plate was finished being loaded, it was gently placed into the 96-well
Teflon acceptor plate, taking care not to trap any air bubbles beneath the membrane.
The donor/acceptor plates were covered gently with the lid to minimize evaporation and transferred
gently as a system to a sealed chamber and left to sit overnight at room temperature. The chamber
was kept from drying by placing a wet paper towel within to prevent evaporation.
After ~19-20 hours the donor plate was removed from the acceptor plate.
50 µL of each well (donor and acceptor) were transferred to a 96 -well plate and diluted with 50 µL
of methanol prior to heat sealing and quantification by UPLC -MS.

Question: Which Papp [1] does the source give for `CC(C)C[C@@H]1NC(=O)[C@H](Cc2ccccc2)N(C)C(=O)[C@H]2CCCN2C(=O)[C@H](CC(C)C)NC(=O)[C@H](C)N(C)C(=O)[C@H](CC(C)C)NC(=O)[C@H](Cc2ccccc2)N(C)C(=O)[C@H]2CCCN2C(=O)[C@H](CC(C)C)NC(=O)[C@H](C)N(C)C1=O` [compound 1] (cyclo(L[NMeA]L[dP][NMeF]L[NMeA]L[dP][NMeF])) here?
Answer: 11.4 ×10⁻⁶ cm/s

Question: And the oral bioavailability [2]?
Answer: 46 %F

Question: And the “PAMPA Papp” value [3]?
Answer: 5.01 × 10^–6 cm/s

Question: And the Papp [4]?
Answer: 5 ×10⁻⁶ cm/s
